Experiment [1] relates to HepG2 (human hepatocellular carcinoma). In words: MTS cytotoxicity test, HepG2. The following applies: HepG2 (liver), read-out: EC50 (concentration where half of the cells died, MTS test). The experiment is classed as cell-based. The procedure:
(§1) In our experiment, HepG2 and Hep3B (human hepatocellular carcinoma), SUM149PT (human breast tumour), K562 (human erythroblastic leukaemia, U87 (human glioma), CCRF-CEM (human leukaemia) cell cultures were used; these were grown in the following medium: U87, CCRF-CEM; Dulbecco's Modified Eagle Medium (D-MEM) (high glucose) (Gibco BRL, Carlsbad, Calif., USA), penicillin (50 IU/ml-streptomycin ([…]), 10% foetal cattle serum.
(§2) 1:1 mixture of HepG2, Hep3B, SUM149PT: Dulbecco's Modified Eagle Medium (D-MEM) (high glucose) (Gibco BRL, Carlsbad, Calif., USA) and Nutrient Mixture F-12 Ham (Sigma, St. Louis, Mo., USA), penicillin (50 IU/ml)-streptomycin ([…]), 10% foetal cattle serum.
(§3) The cells were placed into 96-well microtitration plates (10 000 cells/well), and after 24 hours the cells were incubated with the various substances. After incubation MTS test (3-(4,5-dimethylthiazol-2-yl)-5-(3-carboxymethoxyphenyl)-2-(4-sulphophenyl)-2H-tetrazolium) (Promega, Madison, Wis., USA) was conducted adding it in a final concentration of 0.5 mg/ml to the cells, which were then incubated at 37° C. for 1 hour. The cells were washed with PBS and the formazan dye was dissolved in isopropanol. The amount of the formazan dye transformed was measured by means of a Powerwave reader (Biotek, Winooski, Vt.) at 570 nm; background measurement 690 nm. The calibration curve was obtained in such a way that the capacity of the serial dilutions of the cells to transform MTS was measured and the viable cell count was calculated using Gen5 software.
(§4) In the table the EC50 values of each substance is presented (the concentration where half of the cells died based on the results of the MTS test).

The subject of experiment [2] is K562 (human erythroblastic leukaemia). In words: MTS cytotoxicity test, K562. The experiment is classed as cell-based. Conditions: read-out: EC50 (concentration where half of the cells died, MTS test). The procedure:
as §1, §3, §4
In general terms: Tetrazolium assays rely on reduction of a dye to a coloured formazan, in cell work by metabolically active cells.

A further experiment deals with U87 (human glioma). In words: MTS cytotoxicity test, U87. Format: cell-based. The following applies: U-87 MG, read-out: EC50 (concentration where half of the cells died, MTS test). The procedure:
as §1, §3, §4

Experiment [3] deals with T1, Matrix metalloproteinase 2 (MMP-2, 72 kDa gelatinase) (Rattus norvegicus, UniProt P33436).
T1 construct: endogenous in cells; host or cells: H9c2 rat embryonic myocardial cells (culture supernatant)
T1 sequence (P33436 110-662): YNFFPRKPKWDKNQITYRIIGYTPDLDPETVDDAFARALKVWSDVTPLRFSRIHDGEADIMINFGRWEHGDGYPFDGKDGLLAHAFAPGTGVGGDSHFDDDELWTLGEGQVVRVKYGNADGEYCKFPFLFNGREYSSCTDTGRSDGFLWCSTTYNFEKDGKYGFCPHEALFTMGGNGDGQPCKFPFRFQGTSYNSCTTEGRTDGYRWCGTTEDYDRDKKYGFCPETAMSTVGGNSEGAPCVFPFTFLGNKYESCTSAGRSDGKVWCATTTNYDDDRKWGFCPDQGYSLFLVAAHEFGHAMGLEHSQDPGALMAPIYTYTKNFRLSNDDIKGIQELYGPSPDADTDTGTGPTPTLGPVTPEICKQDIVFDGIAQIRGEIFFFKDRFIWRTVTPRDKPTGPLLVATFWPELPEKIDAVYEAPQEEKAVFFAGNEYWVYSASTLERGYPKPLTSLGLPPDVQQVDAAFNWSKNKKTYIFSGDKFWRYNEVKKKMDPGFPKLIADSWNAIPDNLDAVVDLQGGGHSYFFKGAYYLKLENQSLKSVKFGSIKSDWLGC
In words: Gelatinase activity in gel after electrophoresis of H9c2 supernatant (MMP-2). The experiment is classed as biochemical. Conditions: 30 uM, substance present during incubation of the gel. The procedure:
(§5) H9c2 rat embryonic myocardial cells (from ATCC, Rockville, Md., USA) were grown in Dulbecco's modified eagle's medium containing 10% cattle serum, 4 mM L-glutamine (Sigma-Aldrich, Hungary), 100 IU/ml penicillin and 100 ug/ml streptomycin.

The subject of experiment [4] is CCRF-CEM (human leukaemia). In words: MTS cytotoxicity test, CCRF-CEM. The experiment is classed as cell-based. Conditions: read-out: EC50 (concentration where half of the cells died, MTS test). The procedure:
as §1
CCRF-CEM: RPMI Media 1640 (Gibco BRL, Carlsbad, Calif., USA), penicillin (50 IU/ml-streptomycin ([…]), 10% foetal cattle serum.
as §3, §4

Experiment [5] deals with SUM149PT (human breast tumour). In words: MTS cytotoxicity test, SUM149PT. Format: cell-based. Conditions: read-out: EC50 (concentration where half of the cells died, MTS test). The procedure:
as §1, §2, §3, §4

Experiment [6] has as its target T2, Matrix metalloproteinase 9 (MMP-9, 92 kDa gelatinase) (Rattus norvegicus, UniProt P50282).
T2 construct: endogenous in cells; host or cells: H9c2 rat embryonic myocardial cells (culture supernatant)
In words: Gelatinase activity in gel after electrophoresis of H9c2 supernatant (MMP-9). Format: biochemical. Conditions: 30 uM, substance present during incubation of the gel. The procedure:
as §5

Another experiment concerns Lewis rats. In words: Heterotopic heart transplantation, reperfusion injury. Conditions: 3 mg/kg. Format: in vivo, rat. The procedure: A heterotropic heart transplant experiment model was performed in a way described earlier (Poly(ADP-Ribose): inhibition of polymerase reduces the reperfusion injury occurring after heart transplantation (Szabó et al. 2002) , Briefly: the donor hearts were transplanted from Lewis rats. After ischemic protection performed at 4° C. for 1 hour, the hearts were implanted intraabdominally via anastomising the aorta and the pulmonary artery of the donor heart with the abdominal aorta or vena cava of the recipient rat. Care of all animals was performed by people in line with the requirements of “Principles of Laboratory Animal Care”; National Society of Medical Research, and the Guide for the Care and Use of Laboratory Animals prepared by the National Academy of Sciences; publisher: National Institutes of Health (NIH Publication No. 86-23, revised 1996).
The functional measurements of the transplant were carried out as follows: the left ventricular systolic pressure (LVSP), left ventricular end diastolic pressure (LVEDP), rate of the change of blood pressure (dP/dt) and relaxation time constant (TE) were measured by means of a Millar micromanometer (Millar Instruments, Inc.), with different LV, using an intraventricular ballon. The total coronary blood flow (CBF) was measured on the donor aorta with perivascular ultrasonic flow sample. After determination of the baseline, the endothelium-dependent vasodilator acetylcholine (ACH, 1 nmol/l, 0.2 ml) and bradykinin (BK 0.1 nmol/l, 0.2 ml), and the endothelium-independent vasodilator sodium nitroprussid (SNP, 10 nmol/l, 0.2 ml) were added directly into the coronary arteries of the transplant through the donor aorta. Between the infusions, CBP was allowed to return to the baseline level. The vasodilator response was expressed as the maximum percentage change of CBF from the baseline.
Two transplant groups were studied (n=6/in each group). Just before loosening the aorta clamp, slow injection of common salt solution (control group) or the compound according to Example 1 (3 mg/kg) was started and it was continued during the first 5 minutes of the reperfusion period.
Measurement of the systolic and diastolic function and CBF in group A (control) and group B (compound according to Example 1) was performed 1 hour after reperfusion.

Experiment [7] has as its system Hep3B (human hepatocellular carcinoma). In words: MTS cytotoxicity test, Hep3B. The following applies: Hep3B (liver), read-out: EC50 (concentration where half of the cells died, MTS test). Format: cell-based. The procedure: as §1, §2, §3, §4
The subject of a further experiment is Wistar rats. In words: Forced swimming test. The experiment is classed as in vivo, rat. Conditions: 30 mg/kg, previous experiments. The procedure:
Wistar rats received from Charles River Laboratories (Budapest, Hungary) were used as test animals. App. 2 month rats were used (200-300 g body weight). The animals were conditioned for app. 1 week. The animals received standard laboratory food (Charles River Laboratories, Budapest, Hungary) and tap water ad libitum. The temperature and humidity were kept at 22±2° C. and 60±10%, respectively. The rats were kept in groups of 5 in 45×35×25 cm Makrolon cages. Day/night cycles of 12 hours were used; the light was switched off at 19:00. The experiments were conducted in the daylight period. The experiments were conducted in accordance with the European Communities Council Directive of 24 Nov. 1985 (86/609/EEC, according to the control and approval of the Animal Welfare Committee of the Institute of Experimental Medicine).
Rats were forced to swim twice as described in the following publication: Porsolt et al., 1978. On the first day every rat was placed in a 15 cm wide, 35 cm high glass cylinder filled with water to 30 cm. […] Behaviour of the animals was recorded by a video camera located 2 meters from the cylinders. The following behaviour factors were recorded: struggling (the animal tries to leave the cylinder by climbing on the walls); swimming (swimming round in the cylinder) and floating (the animal makes only the movements necessary to keep its head above the wafer). […]

Where [8] appears, read: after 60 minute reperfusion, vs control.

T2 sequence (P50282 108-708): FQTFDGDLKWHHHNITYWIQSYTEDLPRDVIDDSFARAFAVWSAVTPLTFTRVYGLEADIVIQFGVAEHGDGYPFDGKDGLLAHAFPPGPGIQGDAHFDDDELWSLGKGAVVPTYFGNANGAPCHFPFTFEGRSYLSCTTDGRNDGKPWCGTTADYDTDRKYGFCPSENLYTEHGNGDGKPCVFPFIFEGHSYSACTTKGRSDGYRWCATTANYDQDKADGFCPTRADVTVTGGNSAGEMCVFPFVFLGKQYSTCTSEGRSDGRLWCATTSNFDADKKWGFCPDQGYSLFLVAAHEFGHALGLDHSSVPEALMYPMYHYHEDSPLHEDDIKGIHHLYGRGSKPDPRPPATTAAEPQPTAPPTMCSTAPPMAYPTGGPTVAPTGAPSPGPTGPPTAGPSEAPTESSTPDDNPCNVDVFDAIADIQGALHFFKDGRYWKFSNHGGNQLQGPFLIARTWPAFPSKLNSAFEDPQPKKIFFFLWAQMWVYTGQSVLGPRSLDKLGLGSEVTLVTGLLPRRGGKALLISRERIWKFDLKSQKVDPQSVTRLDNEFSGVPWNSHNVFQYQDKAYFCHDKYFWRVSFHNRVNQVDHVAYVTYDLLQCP

Consider `Cc1cccc(NC(c2ccc(C(F)(F)F)cc2F)c2ccc3cccnc3c2O)n1` (stereo not shown) [7-((6-methylpyridin-2-ylamino)(2-fluoro-4-(trifluoromethyl)phenyl)methyl)quinolin-8-ol], for which the EC50 in [1] was 1000 nM; in [2], 1500 nM; in the experiment with U87 (human glioma), 2500 nM.
For `Cc1cccc(NC(c2ccc([N+](=O)[O-])cc2)c2ccc3cccnc3c2O)n1` (stereo not shown) [Example 1, 7-((6-methylpyridin-2-ylamino) (4-nitrophenyl)methyl)quinolin-8-ol], the “inhibition of 72 kDa gelatinase (MMP-2)” value in [3] is on record as “completely inhibited”. In addition, the EC50 was found to be 1000 nM in experiment [4]; 500 nM in experiment [1]; 10000 nM in experiment [5]; 1000 nM in experiment [2]; 2500 nM in the experiment on U87 (human glioma). Moreover, the “inhibition of 92 kDa gelatinase (MMP-9)” value in [6] is listed as “inhibited the 92 kDa gelatinase (MMP-9) as well, hut to a less extent than the 72 kDa gelatinase”. For the same molecule, the “LVEDP (left ventricular end diastolic pressure)” value in the experiment with Lewis rats (setting [8]) is “did not show changing values between the groups”. The “LVSP (left ventricular systolic pressure)” value in the experiment with Lewis rats (setting [8]) is listed as “significantly (P=0.05) higher”. Further, the “peak positive dP/dt” value in the experiment with Lewis rats (setting [8]) was “significantly (P=0.05) higher”. In addition, the systolic functional recovery result in the experiment with Lewis rats (setting [8]) was “significantly better”. Further, the “reperfusion injury after heart transplantation” value in the experiment on Lewis rats (injection at start of reperfusion) is “Reduces Reperfusion Injury”. Moreover, the “systolic heart function curves” value in the experiment on Lewis rats (vs group treated with the carrier (FIG. 1a, 1b)) is reported as “significant drift to the left”.
Turning to `CCOC(=O)c1ccc(NC(c2ccc([N+](=O)[O-])cc2)c2ccc3cccnc3c2O)cc1` (stereo not shown) [Example 2, Ethyl 4-((8-hydroxyquinolin-7-yl) (4-nitrophenyl)methylamino)benzoate], the EC50 in experiment [4] turned out to be 1000 nM; in experiment [1], 2500 nM; in the experiment with U87 (human glioma), 4000 nM; in [7], 5000 nM.
`Oc1c(C(Nc2ccc(C(F)(F)F)cc2)c2ccccn2)ccc2cccnc12` (stereo not shown) [Example 5, 7-[pyridin-2-yl-(4-trifluoromethyl-phenylamino)-methyl]-quinolin-8-ol]: the EC50 in experiment [4] is 100 nM; in experiment [1], 2000 nM; with U87 (human glioma) it was 3500 nM; in [7], 2000 nM.
As for `Cc1cccc(NC(c2ccc(C(F)(F)F)cc2)c2ccc3cccnc3c2O)n1` (stereo not shown) [Example 7, 7-[(6-methyl-pyridin-2-ylamino)-(4-trifluoromethyl-phenyl)-methyl]-quinolin-8-ol], the EC50 amounted to 300 nM in [4], 500 nM in experiment [1], 15000 nM in experiment [2] and 5000 nM in experiment [7].
On to `Cc1ccnc(NC(c2ccc(C(F)(F)F)cc2)c2ccc3cccnc3c2O)c1` (stereo not shown) [Example 8, 7-[(4-methyl-pyridin-2-ylamino)-(4-trifluoromethylphenyl)-methyl]-quinolin-8-ol], for which the EC50 in experiment [5] worked out at 10000 nM; in [2], 8000 nM.
Regarding `Cc1ccnc(NC(c2ccc(C(F)(F)F)cc2)c2ccc3cccnc3c2O)n1` (stereo not shown) [Example 10, 7-((4-methylpyrimidin-2-ylamino) (4-(trifluoromethyl)phenyl)methyl)quinolin-8-ol], the EC50 in [1] was 1000 nM; in [5], 5000 nM; in [2], 7000 nM; in the experiment on U87 (human glioma) it was 5000 nM.
As for `Cc1ccnc(NC(c2ccccc2O)c2ccc3cccnc3c2O)n1` (stereo not shown) [Example 11, 7-[(2-hydroxyphenyl)-(4-methyl-pyrimidin-2-ylamino)-methyl]-quinolin-8-ol], the EC50 is 1000 nM in experiment [1] and 5000 nM in [2].
In the case of `Cc1cccc(NC(c2ccc(F)c(F)c2)c2ccc3cccnc3c2O)n1` (stereo not shown) [Example 16, 7-((6-methylpyridin-2-ylamino) (3,4-difluorophenyl)methyl)quinolin-8-ol], the results for the EC50 (in experiment [1]; in experiment [2]; in the experiment with U87 (human glioma)) were 5000 nM, 1500 nM and 2500 nM, respectively.
As for `CN(C)CCCN1c2ccccc2CCc2ccccc21` [impipramine, imipramine], in the experiment on Wistar rats, the “floating in forced swimming test” value is given as “reliably reduced floating”.

For the origin of these results see US8871937B2, “8-hydroxy-quinoline derivatives” (“AVIDIN” Kutato, Fejleszto es Kereskedelmi Korlatolt …, priority 2010, dated 2014).
